Results on 1 substance are retold here after article PMC4122817, “Target Engagement Analysis and Link to Pharmacodynamic Endpoint for a Novel Class of CNS-penetrant and Efficacious p38α MAPK Inhibitors” (Journal of Neuroimmune Pharmacology, 2014).

The target of the assay is T1, p38α MAPK (Mus musculus, UniProt P47811).
T1 construct: gene Mapk14; endogenous p38α MAPK in the murine microglial BV-2 cell line
The experiment in a line: western blot of phosphorylated substrate MK2 in LPS-stimulated BV2 cells (pMSK1 IC50 […]); in vivo effect lost in p38α T106M knock-in mice. It counts as cell-based.

T1 sequence (P47811 2-360): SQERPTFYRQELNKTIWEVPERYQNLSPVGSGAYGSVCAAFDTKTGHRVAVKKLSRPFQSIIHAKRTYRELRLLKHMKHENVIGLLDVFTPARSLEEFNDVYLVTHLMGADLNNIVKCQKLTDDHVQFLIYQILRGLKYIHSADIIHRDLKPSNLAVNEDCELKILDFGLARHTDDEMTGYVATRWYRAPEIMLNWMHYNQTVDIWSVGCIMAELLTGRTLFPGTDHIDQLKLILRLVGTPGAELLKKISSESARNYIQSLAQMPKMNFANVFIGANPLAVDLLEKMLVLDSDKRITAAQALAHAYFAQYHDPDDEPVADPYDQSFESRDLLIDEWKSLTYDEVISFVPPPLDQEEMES

In turn, MW181 had an IC50 of 1200 nM.
